Data on 24 compounds can be found in US20240150367A1, “NITROGEN-CONTAINING SPIRO CYCLIC COMPOUNDS AND PHARMACEUTICAL USE THEREOF” (Japan Tobacco Inc., priority 2009, published 2024).

Chain of hJAK3 kinase domain (aa781-end) (P52333 781-1124 limits assumed): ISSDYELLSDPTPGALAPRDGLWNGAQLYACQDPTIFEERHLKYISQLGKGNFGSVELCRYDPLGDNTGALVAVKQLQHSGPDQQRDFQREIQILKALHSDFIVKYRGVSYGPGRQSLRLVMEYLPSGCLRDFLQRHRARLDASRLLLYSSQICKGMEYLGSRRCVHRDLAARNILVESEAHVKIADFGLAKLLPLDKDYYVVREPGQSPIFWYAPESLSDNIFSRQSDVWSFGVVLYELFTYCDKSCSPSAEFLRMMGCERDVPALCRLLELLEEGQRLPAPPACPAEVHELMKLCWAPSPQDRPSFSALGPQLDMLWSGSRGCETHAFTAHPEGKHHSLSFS

One test concerns the target hJAK3 kinase domain (aa781-end) (Homo sapiens (Human), UniProt P52333). As to the kind of experiment: JAK3 activity inhibition, kinase reaction (Test 1). Particulars: read-out: JAK3 % Inhibition.
Method: JAK3 activity inhibitory effects of test compounds were evaluated by the following kinase reactions.
In the kinase reactions, fused proteins (6His tag-fused hJAK3 kinase domain (aa781-end)) which were coexpressed in Sf21 cells and purified by Ni2+/NTA agarose were used.
A well in which ATP was not added was set out as a blank well.
Plates were let stand at room temperature for 10 minutes from starting reactions.
One hour after the addition of the buffer for detection, fluorescence counts of each well were measured by a fluorescence microplate reader.
Data were obtained by deducting the average Ratio of a blank well from Ratio of each well.
`N#CC1CCN(C(=O)N2CCCC23CCN(c2ncnc4[nH]ccc24)C3)C1` (racemic) [Compound 51]: the inhibition at 1 µM is 41%.

`c1nc(N2CCCC3(CCCCCN3)C2)c2cc[nH]c2n1` (racemic) [Compound 75]: the inhibition at 1 µM worked out at 1%.

Consider `c1nc(N2CCC3(CCCCN3)C2)c2cc[nH]c2n1` (racemic) [Compound 79], for which the inhibition at 1 µM worked out at 38%.

For the compound `CC(=O)N1CCCC12CCN(c1ncnc3[nH]ccc13)C2` (racemic) [Compound 87], the inhibition at 1 µM came to 39%.

For the compound `N#CCC(=O)N1CCCC12CCCN(c1c(Cl)cnc3[nH]ncc13)C2` (racemic) [Compound 91], the inhibition at 1 µM was 42%.

`CC1N(c2ncnc3[nH]ccc23)CCC12CCCN2C(=O)CC#N` (stereo not drawn) [Compound 13]: the inhibition at 1 µM was 26%.

Still in this test, the particulars now being: read-out: JAK3 IC50.
As to `CC(O)C(=O)N1CCCC12CCCN(c1ncnc3[nH]ccc13)C2` (single isomer, unassigned) [Compound 30], the concentration for half-maximal inhibition (IC50) was 580 nM.

With `CC1CC2(CCCN2C(=O)CC#N)CN1c1ncnc2[nH]ccc12` (single isomer, unassigned) [Compound 33], the IC50 turned out to be 480 nM.

Consider `CC1N(c2ncnc3[nH]ccc23)CCC12CCCN2C(=O)CC#N` (single isomer, unassigned) [Compound 34], for which the IC50 is 36 nM.

`CC(O)C(=O)N1CCCC12CCCN(c1ncnc3[nH]ccc13)C2` (single isomer, unassigned) [Compound 35]: the IC50 was found to be 530 nM.

For the compound `CC(O)C(=O)N1CCCC12CCCN(c1ncnc3[nH]ccc13)C2` (single isomer, unassigned) [Compound 36], the IC50 worked out at 150 nM.

For the compound `CC1CC2(CCCN2C(=O)CC#N)CN1c1ncnc2[nH]ccc12` (single isomer, unassigned) [Compound 42], the IC50 is 100 nM.

Consider `CC1CC2(CCCN(c3ncnc4[nH]ccc34)C2)N1C(=O)CC#N` (stereo not drawn) [Compound 14], for which the IC50 is 41 nM.

Consider `CC1CC2(CCCN(c3ncnc4[nH]ccc34)C2)N1C(=O)CC#N` (stereo not drawn) [Compound 20], for which the IC50 is 100 nM.

Take `C[C@H](O)C(=O)N1CCCC12CCCN(c1ncnc3[nH]ccc13)C2` (stereo partly drawn) [Compound 43]: the IC50 came out at 40 nM.

Turning to `CO[C@@H](C)C(=O)N1CCCC12CCCN(c1ncnc3[nH]ccc13)C2` (stereo partly drawn) [Compound 45], the IC50 turned out to be 270 nM.

For `CO[C@H](C)C(=O)N1CCCC12CCCN(c1ncnc3[nH]ccc13)C2` (stereo partly drawn) [Compound 46], the concentration for half-maximal inhibition (IC50) was 270 nM.

Take `CC(=O)O[C@@H](C)C(=O)N1CCCC12CCCN(c1ncnc3[nH]ccc13)C2` (stereo partly drawn) [Compound 47]: the IC50 came out at 110 nM.

For the next test, the target named is hJAK2 kinase domain (aa808-end) (Homo sapiens (Human), UniProt O60674). The test can be described thus: JAK2 activity inhibition, kinase reaction (Test 2). Type of test: biochemical.
Chain of hJAK2 kinase domain (aa808-end) (O60674 808-1132 limits assumed): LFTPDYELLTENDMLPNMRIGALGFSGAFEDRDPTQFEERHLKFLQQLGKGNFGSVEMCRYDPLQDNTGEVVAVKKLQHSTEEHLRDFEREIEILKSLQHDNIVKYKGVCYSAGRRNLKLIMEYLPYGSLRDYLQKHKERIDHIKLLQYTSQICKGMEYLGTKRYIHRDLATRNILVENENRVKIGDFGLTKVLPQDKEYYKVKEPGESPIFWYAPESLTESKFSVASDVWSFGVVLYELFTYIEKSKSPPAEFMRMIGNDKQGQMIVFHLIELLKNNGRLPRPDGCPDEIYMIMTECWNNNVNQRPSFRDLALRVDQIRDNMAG
Details: not given
`CC1CN(C(=O)CC#N)C12CCCN(c1ncnc3[nH]ccc13)C2` (single isomer, unassigned) [Compound 1, 3-[3-methyl-6-(7H-pyrrolo[2,3-d]pyrimidin-4-yl)-1,6-diazaspiro[3.5]non-1-yl]-3-oxopropionitrile] showed a half-inhibitory concentration (IC50) of 1 nM.

Compound `CC1CN(C(=O)CC#N)C12CCCN(c1ncnc3[nH]ccc13)C2` (single isomer, unassigned) [Compound 2, 3-[3-methyl-6-(7H-pyrrolo[2,3-d]pyrimidin-4-yl)-1,6-diazaspiro[3.5]non-1-yl]-3-oxopropionitrile] registered an IC50 of 1.7 nM.

On to `N#CCC(=O)N1CCC12CCCN(c1ncnc3[nH]ccc13)C2` (stereo not drawn) [Compound 3, 3-oxo-3-[6-(7H-pyrrolo[2,3-d]pyrimidin-4-yl)-1,6-diazaspiro[3.5]non-1-yl]-propionitrile], for which the 50% inhibitory concentration (IC50) came out at 2.2 nM.

`N#CCC(=O)N1CC(F)(F)C12CCN(c1ncnc3[nH]ccc13)C2` (stereo not drawn) [Compound 4, 3-[3,3-difluoro-6-(7H-pyrrolo[2,3-d]pyrimidin-4-yl)-1,6-diazaspiro[3.4]oct-1-yl]-3-oxopropionitrile] showed a half-maximal inhibitory concentration (IC50) of 1.7 nM.

Compound `N#CCC(=O)N1CC(F)(F)C12CCCN(c1ncnc3[nH]ccc13)C2` (stereo not drawn) [Compound 5, 3-[3,3-difluoro-6-(7H-pyrrolo[2,3-d]pyrimidin-4-yl)-1,6-diaza-spiro[3.5]non-1-yl]-3-oxo-propionitrile] displayed a concentration for half-maximal inhibition (IC50) of 1.9 nM.

With `N#CCC(=O)N1CCCC12CCCN(c1ncnc3[nH]ccc13)C2` (stereo not drawn) [Compound 7, 3-oxo-3-[7-(7H-pyrrolo[2.3-d]pyrimidin-4-yl)-1,7-diazaspiro[4.5]dec-1-yl)propionitrile], the IC50 worked out at 4.7 nM.

Usually inhibition stands for the relative decrease from the control value, in per cent. Broadly, the IC50 is the midpoint of a concentration-inhibition curve.
